What was measured:
Settings in all cases: 72 h
Caco-2 [1] = assay: cell viability relative to DMSO; higher = less toxic
Calu-3 [2] = assay: as above
HepG2 [3] = assay: as above
U2OS [4] = assay: as above
Vero E6 [5] = assay: as above
Caco-2 [6] = assay: relative viability EC50 (midpoint between 100% and the lowest measured viability); higher = less toxic
Calu-3 [7] = assay: as above
HepG2 [8] = assay: as above
U2OS [9] = assay: as above
Vero E6 [10] = assay: as above
Caco-2 [11] = assay: drug sensitivity score (DSS) for viability; higher = more toxic; extreme values may be limits of the assay
Calu-3 [12] = assay: as above
HepG2 [13] = assay: as above
U2OS [14] = assay: as above
Vero E6 [15] = assay: as above

Structure (SMILES) | cell viability (Caco-2 [1]; 1 nM) | cell viability (Caco-2 [1]; 10 nM) | cell viability (Caco-2 [1]; 100 nM) | cell viability (Caco-2 [1]; 1000 nM) | cell viability (Caco-2 [1]; 10000 nM) | cell viability (Calu-3 [2]; 1 nM) | cell viability (Calu-3 [2]; 10 nM) | cell viability (Calu-3 [2]; 100 nM) | cell viability (Calu-3 [2]; 1000 nM) | cell viability (Calu-3 [2]; 10000 nM) | cell viability (HepG2 [3]; 1 nM) | cell viability (HepG2 [3]; 10 nM) | cell viability (HepG2 [3]; 100 nM) | cell viability (HepG2 [3]; 1000 nM) | cell viability (HepG2 [3]; 10000 nM) | cell viability (U2OS [4]; 1 nM) | cell viability (U2OS [4]; 10 nM) | cell viability (U2OS [4]; 100 nM) | cell viability (U2OS [4]; 1000 nM) | cell viability (U2OS [4]; 10000 nM) | cell viability (Vero E6 [5]; 1 nM) | cell viability (Vero E6 [5]; 10 nM) | cell viability (Vero E6 [5]; 100 nM) | cell viability (Vero E6 [5]; 1000 nM) | cell viability (Vero E6 [5]; 10000 nM) | relative viability EC50 (Caco-2 [6]) | relative viability EC50 (Calu-3 [7]) | relative viability EC50 (HepG2 [8]) | relative viability EC50 (U2OS [9]) | relative viability EC50 (Vero E6 [10]) | drug sensitivity score (Caco-2 [11]) | drug sensitivity score (Calu-3 [12]) | drug sensitivity score (HepG2 [13]) | drug sensitivity score (U2OS [14]) | drug sensitivity score (Vero E6 [15])
CO/N=C(\C(=O)N[C@@H]1C(=O)N2C(C(=O)O)=CCS[C@H]12)c1csc(N)n1 [ceftizoxim] | 89.5% | 100% | 92.1% | 103% | 95.7% | 97.2% | 93.6% | 103% | 105% | 93.4% | 97.5% | 96.1% | 107% | 103% | 103% | 97.7% | 99.2% | 94.5% | 98.8% | 98.7% | 102% | 99.2% | 95.2% | 95.6% | 105% | > 10 µM | > 10 µM | > 10 µM | > 10 µM | > 10 µM | 0 | 0 | 0 | 0 | 0
CC(C)(O)C(Cl)(Cl)Cl [chlorobutanol] | 95% | 107% | 98.7% | 85.2% | 98.1% | 105% | 107% | 104% | 110% | 98.9% | 110% | 96.8% | 105% | 96.1% | 110% | 99.7% | 101% | 96.5% | 98.3% | 96.5% | 102% | 96.9% | 100% | 102% | 102% | > 10 µM | > 10 µM | > 10 µM | > 10 µM | > 10 µM | 0 | 0 | 0 | 0 | 0
C=C1CC[C@H](O)C/C1=C/C=C1\CCC[C@]2(C)[C@@H]([C@H](C)CCCC(C)C)CC[C@@H]12 [cholecalciferol] | 95.6% | 88.2% | 101% | 103% | 144% | 100% | 102% | 96.5% | 108% | 95.5% | 90.3% | 82.4% | 92.8% | 93.4% | 84.6% | 94.6% | 103% | 96.4% | 100% | 99.4% | 92.1% | 85.5% | 102% | 93.8% | 120% | > 10 µM | > 10 µM | > 10 µM | > 10 µM | > 10 µM | 0 | 0 | 0 | 0 | 0
CCn1nc(C(=O)O)c(=O)c2cc3c(cc21)OCO3 [cinoxacin] | 99.3% | 100% | 100% | 106% | 98.3% | 99.3% | 98.6% | 89.4% | 93.9% | 98.7% | 100% | 86.1% | 110% | 85.1% | 103% | 95.1% | 97.3% | 94.2% | 98.5% | 99.5% | 91.4% | 102% | 92.1% | 89.4% | 102% | > 10 µM | > 10 µM | > 10 µM | > 10 µM | > 10 µM | 0 | 0 | 0 | 0 | 0
Cn1c(CNc2ccc(C(=N)N)cc2)nc2cc(C(=O)N(CCC(=O)O)c3ccccn3)ccc21 [dabigatran] | 109% | 97.1% | 101% | 94% | 95.5% | 114% | 99.6% | 90.1% | 93.7% | 92.8% | 103% | 95.8% | 104% | 97.8% | 91.7% | 104% | 99.3% | 101% | 97.1% | 98.1% | 96.9% | 96.4% | 99.1% | 101% | 99% | > 10 µM | > 10 µM | > 10 µM | > 10 µM | > 10 µM | 0 | 0 | 0 | 0 | 0
CC1(C)O[C@@H]2C[C@H]3[C@@H]4CCC5=CC(=O)C=C[C@]5(C)[C@H]4[C@@H](O)C[C@]3(C)[C@]2(C(=O)CO)O1 [desonide] | 103% | 106% | 95% | 112% | 120% | 124% | 92.5% | 95% | 101% | 96.9% | 102% | 101% | 93.9% | 94.6% | 94.6% | 99.5% | 94.9% | 101% | 93.6% | 97.9% | 102% | 102% | 101% | 108% | 99.5% | > 10 µM | > 10 µM | > 10 µM | > 10 µM | > 10 µM | 0 | 0 | 0 | 0 | 0
O=c1[nH]cnc2c1ncn2[C@H]1CC[C@@H](CO)O1 [didanosine] | 107% | 88.7% | 97.9% | 85.3% | 108% | 96.3% | 85% | 114% | 106% | 99.9% | 99.6% | 84.8% | 90.7% | 90.8% | 105% | 99.4% | 93.6% | 102% | 101% | 107% | 96% | 97.3% | 95.2% | 98% | 107% | > 10 µM | > 10 µM | > 10 µM | > 10 µM | > 10 µM | 0 | 0 | 0 | 0 | 0
O=c1[nH]c2ccccc2n1CCCN1CCC(n2c(=O)[nH]c3cc(Cl)ccc32)CC1 [domperidone] | 100% | 96.1% | 96.7% | 92.1% | 94.3% | 102% | 94.6% | 105% | 106% | 101% | 94.6% | 96.4% | 92.3% | 104% | 95.7% | 103% | 90.7% | 97.6% | 95.6% | 94.2% | 90% | 93.8% | 95.8% | 96.6% | 89% | > 10 µM | > 10 µM | > 10 µM | > 10 µM | > 10 µM | 0 | 0 | 0 | 0 | 0
CN(C)CC/C=C1/c2ccccc2COc2ccccc21 [doxepin] | 90.4% | 100% | 97.4% | 102% | 99.6% | 89% | 101% | 97.9% | 97.7% | 89.9% | 103% | 85.4% | 115% | 97.4% | 99.3% | 94.9% | 101% | 98.7% | 102% | 103% | 100% | 96.8% | 96.7% | 91.1% | 106% | > 10 µM | > 10 µM | > 10 µM | > 10 µM | > 10 µM | 0 | 0 | 0 | 0 | 0
Cc1oc(-c2ccccc2)nc1CCOc1ccc(CC2SC(=O)NC2=O)c2sccc12 (stereo not given) [edaglitazone] | 104% | 98.6% | 90.4% | 96.1% | 87.2% | 106% | 102% | 114% | 97.5% | 102% | 102% | 107% | 93.6% | 100% | 88.8% | 99.4% | 93% | 99.2% | 97.4% | 96.9% | 103% | 102% | 89.4% | 83.7% | 86.7% | > 10 µM | > 10 µM | > 10 µM | > 10 µM | > 10 µM | 0.1 | 0 | 0 | 0 | 2.6
CCc1nc(C)ccc1O [emoxipin] | 95.1% | 99.6% | 98.1% | 98.6% | 90.9% | 105% | 111% | 104% | 96.8% | 105% | 110% | 108% | 97.4% | 99.6% | 108% | 102% | 101% | 106% | 97% | 103% | 98.1% | 102% | 97.3% | 92.7% | 93.2% | > 10 µM | > 10 µM | > 10 µM | > 10 µM | > 10 µM | 0 | 0 | 0 | 0 | 0
CCOC(=O)CCC(=O)O[C@H]1[C@H](O[C@@H]2[C@@H](C)[C@H](O[C@H]3C[C@@](C)(OC)[C@@H](O)[C@H](C)O3)[C@@H](C)C(=O)O[C@H](CC)[C@@](C)(O)[C@H](O)[C@@H](C)C(=O)[C@H](C)C[C@@]2(C)O)O[C@H](C)C[C@@H]1N(C)C [erythromycin-ethylsuccinate] | 87.7% | 114% | 85.5% | 100% | 99.5% | 101% | 98.5% | 100% | 101% | 96.3% | 97.8% | 107% | 101% | 87.5% | 101% | 102% | 103% | 96.8% | 106% | 100% | 112% | 94.8% | 103% | 100% | 104% | > 10 µM | > 10 µM | > 10 µM | > 10 µM | > 10 µM | 0 | 0 | 0 | 0 | 0
O=C(CN1CCNCC1)NC1CCCCC1 [esaprazole] | 105% | 92.2% | 105% | 98.5% | 98.6% | 98.3% | 98% | 101% | 104% | 97.1% | 104% | 99.5% | 100% | 102% | 90.1% | 99% | 100% | 102% | 100% | 108% | 103% | 107% | 99.1% | 107% | 98.5% | > 10 µM | > 10 µM | > 10 µM | > 10 µM | > 10 µM | 0 | 0 | 0 | 0 | 0

From the supplement of paper PMC13380429
